Test results from the NIST ThermoML archive (doi:10.1016/j.jct.2016.09.022).
Numbers after ± are expanded uncertainties.

Key:
[1] = Liquid; for speed of sound: Frequency=1.5 MHz, Single path-length method; for mass density: 298.15 K, 101.33 kPa, Vibrating tube method
[2] = refractive index (Na D-line) (dimensionless); details: 298.15 K; 101.33 kPa; Liquid; Standard Abbe refractometry

CCCO [propan-1-ol]
speed of sound [m/s], [1]
Details | 283.15 K | 293.15 K | 303.15 K | 313.15 K | 323.15 K | 333.15 K | 343.15 K
100 kPa | 1260.3 ± 2.5 | 1223.5 ± 2.5 | 1189.2 ± 2.4 | 1155.3 ± 2.4 | 1121.7 ± 2.3 | 1088.3 ± 2.2 | 1054.4 ± 2.1
5100 kPa | 1287.8 ± 2.8 | 1252.2 ± 2.8 | 1219.6 ± 2.7 | 1186.7 ± 2.7 | 1153.8 ± 2.6 | 1122.2 ± 2.6 | 1090.2 ± 2.6
10100 kPa | 1313.7 ± 2.8 | 1279.6 ± 2.8 | 1248.2 ± 2.7 | 1216.4 ± 2.7 | 1184.6 ± 2.7 | 1153.7 ± 2.6 | 1123.4 ± 2.6
20100 kPa | 1362.3 ± 2.9 | 1330 ± 2.9 | 1300.9 ± 2.8 | 1271.4 ± 2.8 | 1241.7 ± 2.7 | 1212.8 ± 2.7 | 1183.9 ± 2.7
30100 kPa | 1407.9 ± 3 | 1377 ± 2.9 | 1349.1 ± 2.9 | 1320.6 ± 2.8 | 1293 ± 2.8 | 1265.9 ± 2.8 | 1239.2 ± 2.7
40100 kPa | 1450.3 ± 3 | 1420.8 ± 3 | 1394.3 ± 2.9 | 1366.8 ± 2.9 | 1340.2 ± 2.9 | 1314.2 ± 2.8 | 1289.2 ± 2.8
50100 kPa | 1490.2 ± 3.1 | 1461.7 ± 3 | 1436.6 ± 3 | 1410.1 ± 3 | 1384.6 ± 2.9 | 1359.7 ± 2.9 | 1335.5 ± 2.8
60100 kPa | 1527.4 ± 3.2 | 1500.3 ± 3.1 | 1476.2 ± 3.1 | 1450.6 ± 3 | 1426.4 ± 3 | 1402.2 ± 2.9 | 1379 ± 2.9
70100 kPa | 1563.2 ± 3.2 | 1537.2 ± 3.2 | 1513.7 ± 3.1 | 1489.5 ± 3.1 | 1465.1 ± 3 | 1441.9 ± 3 | 1419.9 ± 3
80100 kPa | 1597.2 ± 3.3 | 1572.1 ± 3.2 | 1549.5 ± 3.2 | 1525.9 ± 3.1 | 1502.3 ± 3.1 | 1479.3 ± 3.1 | 1458.2 ± 3
90100 kPa | 1630 ± 3.3 | 1605.3 ± 3.3 | 1583.6 ± 3.2 | 1560.4 ± 3.2 | 1537.5 ± 3.2 | 1515.2 ± 3.1 | 1497.2 ± 3.1
95100 kPa | 1645.7 ± 3.4 | 1621.6 ± 3.3 | 1600.1 ± 3.3 | 1577.2 ± 3.2 | 1554.4 ± 3.2 | 1532.6 ± 3.2 | 1512.2 ± 3.1

Details | mass density [kg/m3] | refractive index
[1] | 799.5 ± 1.6 | –
[2] | – | 1.383 ± 0.0028

CCCCCCC [heptane]
speed of sound [m/s], [1]
Details | 283.15 K | 293.15 K | 303.15 K | 313.15 K | 323.15 K | 333.15 K | 343.15 K
100 kPa | 1197.2 ± 2.6 | 1153.9 ± 2.5 | 1111.4 ± 2.5 | 1068.8 ± 2.4 | 1025.9 ± 2.3 | 983.91 ± 2.2 | 942.89 ± 2.2
5100 kPa | 1231.5 ± 3 | 1189.6 ± 2.9 | 1148.8 ± 2.9 | 1108.9 ± 2.9 | 1068.6 ± 2.9 | 1028.8 ± 2.9 | 989.64 ± 2.9
10100 kPa | 1263.8 ± 3 | 1223.4 ± 2.9 | 1184.1 ± 2.9 | 1145.2 ± 2.9 | 1107.3 ± 2.8 | 1069.8 ± 2.8 | 1032.5 ± 2.8
20100 kPa | 1323.2 ± 3 | 1284.8 ± 3 | 1248.7 ± 3 | 1212.3 ± 2.9 | 1176.7 ± 2.9 | 1141.9 ± 2.9 | 1108.4 ± 2.8
30100 kPa | 1376.7 ± 3.1 | 1340.1 ± 3.1 | 1306.4 ± 3 | 1272.1 ± 3 | 1239 ± 2.9 | 1206.4 ± 2.9 | 1174.6 ± 2.9
40100 kPa | 1426.3 ± 3.2 | 1391.5 ± 3.1 | 1359.2 ± 3.1 | 1326.3 ± 3 | 1295.3 ± 3 | 1264.6 ± 2.9 | 1234.9 ± 2.9
50100 kPa | 1472.5 ± 3.2 | 1439 ± 3.2 | 1408.5 ± 3.1 | 1377.4 ± 3.1 | 1346.7 ± 3 | 1317.4 ± 3 | 1289.3 ± 3
60100 kPa | 1515.6 ± 3.3 | 1483.3 ± 3.2 | 1454.5 ± 3.2 | 1424.7 ± 3.2 | 1395.2 ± 3.1 | 1366.6 ± 3.1 | 1339.5 ± 3
70100 kPa | 1556.1 ± 3.4 | 1525.3 ± 3.3 | 1497.4 ± 3.3 | 1468.7 ± 3.2 | 1440.1 ± 3.2 | 1412.9 ± 3.1 | 1387 ± 3.1
80100 kPa | 1593.8 ± 3.4 | 1564.9 ± 3.4 | 1538.3 ± 3.3 | 1510.3 ± 3.3 | 1482.6 ± 3.2 | 1456 ± 3.2 | 1431.2 ± 3.1
90100 kPa | 1629.7 ± 3.5 | 1602.3 ± 3.4 | 1577 ± 3.4 | 1549.8 ± 3.4 | 1522.8 ± 3.3 | 1496.7 ± 3.3 | 1472.7 ± 3.2
95100 kPa | 1646.4 ± 3.5 | 1620.6 ± 3.5 | 1595 ± 3.4 | 1568.8 ± 3.4 | 1542.2 ± 3.3 | 1516.4 ± 3.3 | 1492.7 ± 3.2

Details | mass density [kg/m3] | refractive index
[1] | 679.5 ± 1.4 | –
[2] | – | 1.3852 ± 0.0028

CCCCCC [hexane]
speed of sound [m/s], [1]
Details | 283.15 K | 293.15 K | 303.15 K | 313.15 K | 323.15 K | 333.15 K | 343.15 K
100 kPa | 1147.3 ± 2.5 | 1102.8 ± 2.5 | 1056.2 ± 2.4 | 1011.6 ± 2.3 | 966.77 ± 2.2 | 923.14 ± 2.1 | –
105 kPa | – | – | – | – | – | – | 877.65 ± 2.1
5100 kPa | 1183.8 ± 2.9 | 1141.9 ± 2.9 | 1097.9 ± 2.9 | 1055.9 ± 2.9 | 1013.6 ± 2.9 | 972.45 ± 2.9 | 931.79 ± 2.9
10100 kPa | 1218.6 ± 3 | 1177.2 ± 2.9 | 1135.8 ± 2.9 | 1096.4 ± 2.8 | 1056.7 ± 2.8 | 1017.2 ± 2.8 | 977.66 ± 2.8
20100 kPa | 1283.2 ± 3 | 1243.4 ± 3 | 1204.4 ± 2.9 | 1167.8 ± 2.9 | 1131.8 ± 2.9 | 1096.3 ± 2.8 | 1060.6 ± 2.8
30100 kPa | 1339.6 ± 3.1 | 1302.4 ± 3 | 1266.5 ± 3 | 1231.8 ± 2.9 | 1197.6 ± 2.9 | 1164 ± 2.9 | 1131.3 ± 2.8
40100 kPa | 1391.9 ± 3.1 | 1356 ± 3.1 | 1321.9 ± 3 | 1289.3 ± 3 | 1256.9 ± 2.9 | 1225.4 ± 2.9 | 1194.6 ± 2.9
50100 kPa | 1440.2 ± 3.2 | 1405.9 ± 3.1 | 1373.7 ± 3.1 | 1341.4 ± 3 | 1311 ± 3 | 1280.6 ± 3 | 1252.1 ± 2.9
60100 kPa | 1484.8 ± 3.2 | 1452.3 ± 3.2 | 1421.1 ± 3.1 | 1390.3 ± 3.1 | 1361.3 ± 3.1 | 1331.7 ± 3 | 1304.4 ± 3
70100 kPa | 1526.9 ± 3.3 | 1495.6 ± 3.3 | 1464.4 ± 3.2 | 1435.6 ± 3.2 | 1408.2 ± 3.1 | 1380.5 ± 3.1 | 1354.1 ± 3
80100 kPa | 1566.5 ± 3.4 | 1536.7 ± 3.3 | 1508.3 ± 3.3 | 1478.3 ± 3.2 | 1451.5 ± 3.2 | 1425.6 ± 3.1 | 1400.1 ± 3.1
90100 kPa | 1604.6 ± 3.5 | 1575.4 ± 3.4 | 1548 ± 3.4 | 1519.6 ± 3.3 | 1493 ± 3.3 | 1467.5 ± 3.2 | 1442.2 ± 3.2
95100 kPa | 1622.6 ± 3.5 | 1594.1 ± 3.4 | 1567.1 ± 3.4 | 1539.5 ± 3.3 | 1512.6 ± 3.3 | 1487.5 ± 3.2 | 1463.4 ± 3.2

Details | mass density [kg/m3] | refractive index
[1] | 654.9 ± 1.3 | –
[2] | – | 1.3723 ± 0.0028
